Results: patent US8106042B2 (priority 2008, dated 2012)

Molecular target: α7-subtype of nicotinic receptors (Mus musculus, UniProt P49582)
Experiment: in vivo
Set-up: species or system mice
Details: read-out: Inhibition of 3H-α-Bungarotoxine Binding EC50

α7-subtype of nicotinic receptors, sequence (P49582 23-502): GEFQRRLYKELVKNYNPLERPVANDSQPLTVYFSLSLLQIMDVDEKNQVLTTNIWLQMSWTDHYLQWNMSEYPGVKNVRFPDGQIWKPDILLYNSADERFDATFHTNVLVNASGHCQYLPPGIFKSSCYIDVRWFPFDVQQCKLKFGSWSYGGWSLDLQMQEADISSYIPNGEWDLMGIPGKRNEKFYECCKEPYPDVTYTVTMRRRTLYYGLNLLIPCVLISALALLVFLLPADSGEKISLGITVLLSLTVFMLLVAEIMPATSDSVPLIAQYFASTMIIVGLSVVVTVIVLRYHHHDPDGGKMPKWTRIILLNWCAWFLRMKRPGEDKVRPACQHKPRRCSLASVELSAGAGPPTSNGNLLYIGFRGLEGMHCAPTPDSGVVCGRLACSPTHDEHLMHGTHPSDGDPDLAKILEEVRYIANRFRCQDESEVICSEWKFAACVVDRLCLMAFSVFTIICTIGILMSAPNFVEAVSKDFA

With `[O-][N+]12CCC(CC1)N(c1nnc(-c3ccc4c(c3)OCO4)o1)CC2` [Compound 1, 4-(5-Benzo[1,3]-dioxol-5-yl-[1,3,4]oxadiazol-2-yl)-1,4-diazabicyclo[3.2.2]-nonane-1-oxide] the ED50 was 1.5 mg/kg.
